Here are results for one compound from BindingDB's records for doi:10.1021/jm00021a021 (Tsukuba Research Institute, 1995).

The target in this test is T1, Endothelin-1 receptor (Sus scrofa, UniProt Q29010).
T1 sequence (Q29010 whole entry): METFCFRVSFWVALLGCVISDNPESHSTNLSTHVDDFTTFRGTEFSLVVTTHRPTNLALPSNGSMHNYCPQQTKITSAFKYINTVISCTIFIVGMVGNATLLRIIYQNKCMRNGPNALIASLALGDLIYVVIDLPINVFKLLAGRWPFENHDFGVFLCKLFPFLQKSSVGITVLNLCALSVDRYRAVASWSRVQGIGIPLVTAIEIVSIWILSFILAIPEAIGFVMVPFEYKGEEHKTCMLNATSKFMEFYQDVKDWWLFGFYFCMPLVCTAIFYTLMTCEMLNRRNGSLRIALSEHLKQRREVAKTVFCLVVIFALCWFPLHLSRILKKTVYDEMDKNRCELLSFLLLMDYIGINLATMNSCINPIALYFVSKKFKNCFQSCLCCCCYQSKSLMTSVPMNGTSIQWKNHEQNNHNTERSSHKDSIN
Put plainly: The compound was tested for binding inhibitory activity against Endothelin A receptor from porcine aortic smooth muscle membranes.

As to `CC(C)C[C@@H]1NC(=O)[C@@H](CC(C)C)NC(=O)[C@H](C)NC(=O)[C@@H](CC(=O)O)NC(=O)[C@@H](Cc2c[nH]c3ccccc23)NC1=O`, the half-maximal inhibitory concentration (IC50) is 440 nM.

One may read the IC50 as the concentration that inhibits the measured activity by half. Read a low IC50 as greater potency in that assay.
